{
  "source": "patent US11179361B2",
  "about": "“Methods of quantifying N2-(1-carboxyethyl)-2′-deoxy-guanosine (CEdG) and synthesis of oligonucleotides containing CEdG” (CITY OF HOPE, priority 2008, dated 2021)",
  "key": {"[1]": {"assay": "Stability of CEdG to acid-catalyzed depurination and sidechain isomerization", "conditions": "37° C.; for racemization of the sidechain stereocenter / interconversion of isomers: acidic hydrolysis, 1 M AcOH", "quoted_text": "(§2) A 1.25 mM solution of CEdG-A, B or dG in 100 μL of 1M AcOH (pH 2.4) was stirred at 37° C. Aliquots (10 μl) were removed periodically and added to 40 μL of 2M TEAA (pH 7.0). HPLC product analyses were performed using an Alltech HS HyperPrep 100 BDS C18 8μ column. A gradient of 0 to 4% CH3CN over 5 min was followed by 6.5% CH3CN over 30 min. TEAA (pH 7) was kept constant at 50 mM. The ratio of free base (CEGuanine or Guanine) to intact nucleoside (CEdG or dG) was calculated by integration of the corresponding HPLC peaks (see inset in FIG. 4).\n(§3) Purified stereoisomers of synthetic CEdG were subjected to acidic conditions (1 M AcOH at 37° C.) and the extent of released free base and diastereomer interconversion was monitored by HPLC as a function of time."}, "[2]": {"test_system": "calf thymus DNA", "assay": "Artifactual CEdG formation during DNA workup with carbonyl scavenger (calf thymus DNA)", "description": "(§1) Calf thymus or tissue-extracted DNA (100 μg) was dissolved in 80 μL of autoclaved 18.2 MΩ H2O containing 20 μL of sodium acetate (100 mM, pH 5.5), 20 μL of 1×TBE, 1.5 μL of 50 mM ZnCl2, and 2.37 μL of a 100 mM AG or D-P stock solution. DNA was denatured at 95° C. for 5 min on a PCR heating block and then brought to 4° C. for 5 min. After equilibration to 45° C., 1.5 μL of 10 U/μL nuclease P1 was added. Alkaline phosphatase (4 μL of 8 U/μL), 1 U of bovine phosphodiesterase, and 14 μL of 100 mM CaCl2 were added after 1 hour, and the hydrolysis/dephosphorylation was continued for another 7 hours. DNA concentrations were determined by UV spectroscopy (1 OD260=50 μg/ml) and samples were stored at −80° C. prior to MS analyses. A 5 μL aliquot of digest was diluted to 200 μL and used for quantitation of 2′-deoxyguanosine by HPLC integration using a Beckman C18 reverse phase (25 cm×4.6 mm) column (Fullerton, Calif.). Separation was achieved isocratically using a mobile phase of 6% MeOH, 0.1% acetic acid in water.\nCommercial grade calf thymus DNA was used as a model substrate for developing a protocol for CEdG quantitation in double-stranded DNA. […] Concentrations of AG from 0.5 to 50 mM were added prior to workup, and CEdG levels were measured in order to determine the optimal concentration required to achieve stable, reproducible levels. […]"}, "[3]": {"test_system": "DNA extracted from breast tumor or adjacent tissue", "assay": "Artifactual CEdG formation during DNA isolation from human breast tumor and adjacent tissue with carbonyl scavenger", "conditions": "10 mM D-penicillamine in two aliquots during cell lysis/DNA isolation and hydrolysis/dephosphorylation", "description": "Breast tumor and adjacent normal tissue were obtained from the frozen tumor bank of the City of Hope Pathology Core. A pea-sized section (˜100 mg) of tissue was minced and suspended in 1.2 mL of digestion buffer (100 mM NaCl, 10 mM Tris HCl, pH 8, 25 mM EDTA, pH 8, 0.5% SDS, 0.2 mg/mL proteinase K, 10 mM D-penicillamine) and incubated at 50° C. in a water bath for 12-18 h. DNA was then extracted using an equivalent volume of phenol/chloroform/isoamyl alcohol (25:24:1). The aqueous fraction was separated and 0.5 volumes of ammonium acetate and 2 volumes of 100% ethanol were added. The DNA was spooled, washed twice with 70% ethanol, pelleted, and resuspended in autoclaved 18.2 MΩ water. The enzymatic hydrolysis was carried out as described above."}, "[4]": {"test_system": "CEdG levels from tissue-extracted DNA", "assay": "CEdG in tissue-extracted DNA from organs of Zucker fatty rats", "assay_type": "in vivo, Zucker rat", "conditions": "liver, pancreas and kidney, after LR-90 treatment", "description": "as §1, with “Separation was achieved isocratically using a mobile phase of 6% MeOH, 0.1% acetic acid in water.” left out\nThe Zucker rat is a morbidly obese, hyperinsulinemic model for Type 2 diabetes resulting from homozygous knockout of the leptin receptor. In order to determine whether elevated circulating glucose in the Zucker rat correlates with increased tissue DNA glycation, CEdG levels from tissue-extracted DNA were measured in selected organs and compared to lean controls and to Zucker rats treated with the glycation inhibitor LR-90. […]"}, "[5]": {"test_system": "urinary CEdG", "assay": "Urinary CEdG measurement in type 1 (streptozoticin) diabetic rats given LR-90", "assay_type": "in vivo, Sprague-Dawley rats", "description": "All animal studies were carried out in compliance with the policies outlined in NIH Publication No. 85-23 “Guide for the Care and Use of Laboratory Animals.” Male Sprague-Dawley rats were rendered diabetic by injection of streptozoticin and maintained as previously described.^18 AGE inhibitor LR-90 was administered ad libitum at concentrations ranging from 2.5-50 mg/L. Rats were housed in metabolic cages and urine was collected over a 24 hour period with several drops of toluene to inhibit microbial growth. Urine samples were stored at −80° C. prior to LC-MS/MS analysis for CEdG. The data in FIG. 5 represent 3 replicates from n different animals: non-diabetic controls, n=6; non-diabetic treated with 50 mg/L LR-90, n=5; diabetic control, n=3. For diabetic rats treated with varying doses of LR-90: 2.5 mg/L, n=4; 10 mg/L, n=5; 25 mg/L, n=6; 50 mg/L, n=8.\nCEdG was concentrated from urine by solid phase extraction. A 1 ml strata-X-C cartridge was pre-conditioned by the sequential addition of 1 ml MeOH/CH3CN (1:1) followed by 2×1 ml 2% H3PO4. Then ^15N5-CEdG was added as an internal standard (final concentration 5 μg/ml), the sample was acidified with 10 μl of 86% H3PO4, and finally 0.4 mL of urine was introduced via suction filtration. The cartridge was then washed with sequential additions of 1 ml 0.1% H3PO4 and 1 ml MeOH and then dried under vacuum for 1 minute. Finally, CEdG/^15N5-CEdG containing fractions were eluted from the cartridge with 1 mL 3% NH4OH in MeOH:CH3CN (2:8 v/v). The eluent was evaporated to dryness in a centrifugal concentrator and reconstituted with 200 μl 0.1% formic acid prior to LC-MS/MS injection.\nCEdG quantification was performed using LC-MS/MS. Measurement of 8-oxo-dG was performed as previously described.^19 CEdG and ^15N5-CEdG (internal standard) were synthesized and purified. Measurements were performed using an Agilent 1100 Capillary LC system (Agilent Technologies, Palo Alto, Calif.) in line with a Micromass Quattro Ultima Triple Quadrupole Mass Spectrometer (Micromass, Beverly, Mass.) operating in positive-ion mode. […] The mass transitions monitored for CEdG and ^15N5-CEdG were 340.3→224.3 and 345.4→229.4 respectively. […] The lower limit of quantitation for CEdG, defined as a peak height of ≥5× baseline noise, was 0.1 ng/ml in the starting solution or 0.2 pg on column.\nA diabetic animal model was used to examine the relationship between glycemic status and CEdG levels. […] 8-oxo-dG was also measured as an indicator of oxidative stress in normal and diabetic rats; however, excreted 8-oxo-dG in diabetic animals was not statistically different (P>0.05) from controls."}, "[6]": {"assay": "physchem", "conditions": "buffer, pH 2.4, half-life for depurination", "quoted_text": "as §2, §3"}},
  "data": [
    {"smiles": "CC(Nc1nc2c(ncn2[C@H]2C[C@H](O)[C@@H](CO)O2)c(=O)[nH]1)C(=O)O", "note": "(single isomer, unassigned) [CEdG-A, N^2-(1-carboxyethyl)-2′-deoxyguanosine]", "values": [
      {"measurement": "half-life at 1.25 mM", "setting": "[1]; 1 M acetic acid solution, pH 2.4, half-life for depurination, 1 M AcOH (pH 2.4), HPLC", "result": "~12.5", "unit": "h"},
      {"measurement": "racemization of the sidechain stereocenter / interconversion of isomers", "setting": "[1]", "result": "no interconversion"}
    ]},
    {"smiles": "CC(Nc1nc2c(ncn2[C@H]2C[C@H](O)[C@@H](CO)O2)c(=O)[nH]1)C(=O)O", "note": "(single isomer, unassigned) [CEdG-B, N^2-(1-carboxyethyl)-2′-deoxyguanosine]", "values": [
      {"measurement": "half-life for depurination", "setting": "[1]; 1 M AcOH (pH 2.4), HPLC", "result": "~8.33", "unit": "h"},
      {"measurement": "racemization of the sidechain stereocenter / interconversion of isomers", "setting": "[1]", "result": "no interconversion"}
    ]},
    {"smiles": "N=C(N)NN", "note": "[AG, aminoguanidine]", "values": [
      {"measurement": "measured CEdG levels after mock proteolysis and hydrolysis with scavenger", "setting": "[2]; 10 mM AG in two aliquots prior to mock lysis and hydrolysis/dephosphorylation, 80-100 CEdG/10^6 guanines without scavenger", "result": "drop in measured CEdG levels"},
      {"measurement": "adduct levels after scavenger addition prior to sample processing", "setting": "[2]; 10 mM AG, hydrolysis/dephosphorylation only, 60-66 CEdG/10^6 dG without scavenger", "result": "45-50 CEdG/10^6 guanines"}
    ]},
    {"smiles": "CC(C)(S)[C@@H](N)C(=O)O", "note": "[D-penicillamine]", "values": [
      {"measurement": "artifactual CEdG formation", "setting": "[3]", "result": "artifactual formation was inhibited"}
    ]},
    {"smiles": "CC(C)(Oc1ccc(NC(=O)Nc2ccc(Cc3ccc(NC(=O)Nc4ccc(OC(C)(C)C(=O)O)cc4)c(Cl)c3)cc2Cl)cc1)C(=O)O", "note": "[LR-90]", "values": [
      {"measurement": "change of CEdG levels in tissue DNA", "setting": "[4]", "result": "net lowering of CEdG levels"},
      {"measurement": "adduct level in urine", "setting": "[5]; diabetic rats, LR-90 25 mg/L", "result": "comparable to that of non-diabetic animals"},
      {"measurement": "decrease in CEdG titer", "setting": "[5]; diabetic rats, LR-90 ad libitum 2.5 mg/L, 24 hr urine", "result": 2.3, "unit": "fold"},
      {"measurement": "reduction in CEdG with increasing concentrations", "setting": "[5]; diabetic rats, LR-90 ad libitum 2.5-50 mg/L, urine", "result": "dose dependent reduction in CEdG"},
      {"measurement": "effect on CEdG levels in normal controls", "setting": "[5]; non-diabetic rats, LR-90 at doses up to 50 mg/L", "result": "no significant effect"}
    ]},
    {"smiles": "Nc1nc2c(ncn2[C@H]2C[C@H](O)[C@@H](CO)O2)c(=O)[nH]1", "note": "[dG, 2′-deoxyguanosine]", "values": [
      {"measurement": "half-life at 1.25 mM", "setting": "[6]", "result": 7.33, "unit": "h"}
    ]}
  ]
}
